Experimental data published in patent US4713376A, “Dementia-improving and therapeutic agents” (Toyama Chemical Co., Ltd., priority 1985, dated 1987).

Columns and labels:
[1] = Hygroscopicity on storage; assay type: physicochemical; conditions: (Increased weight)/(Original weight) × 100; 10 days, 30° C., relative humidity 55%
Protocol: (§1) Next, among the present compounds [I], α-acetoxy-α-methylaceticacid trimethylammonioethyl ester toluene-4-sulfonate (hereinafter referred to as ALT) and bis(α-acetoxy-α-methylacetic acid trimethylammonioethyl ester) naphthalene-1,5-disulfonate (general name: aclatonium napadisilate) were […] for mouse acute toxicity by intraperitoneal injection as well as for hygroscopicity and stability.
(§2) Stored for 10 days at room temperature (30° C.) at a relative
*1 Hygroscopicity (%) = (Increased weight)/(Original weight) × 100

[2] = Mouse acute toxicity by intraperitoneal injection; conditions: in vivo, ip
Description: as §1

[3] = assay type: physicochemical; conditions: 10 days, relative humidity 55%; for Appearance: room temperature (30° C.); for Decomposition percentage: hydroxylamine method, 30° C.
Protocol: as §1, §2
*2 Measured in accordance with the hydroxylamine method for ester (Jikken
Kagaku Koza, Vol. 24 Seibutsu Kagaku II, p 253 to 255, Maruzen).
Decomposition percentage (%) = [1 - (absorbance of test
sample)/(absorbance of standard solution)] × 100

[4] = test system: dementia; test: Neuropsychiatric symptoms accompanying dementia and cognitive function, summary of clinical cases; assay type: in vivo, patients
Protocol: (§3) The degree of dementia was diagnosed in patients on the basis of DSM-III criteria with reference to the neuropsychiatric symptoms and findings of the CT scan of the head regions.
(§4) The overall improvement degree of the present drug was evaluated from the neuropsychiatric symptoms, scores of activity of daily living and Hasegawa's rating scales.

[5] = test system: patients; test: Side effects in the clinical cases; assay type: in vivo; conditions: all of the above clinical cases
[6] = test system: senile dementia of Alzheimer's type; test: Clinical cases, overall improvement degree and neuropsychiatric symptoms, senile dementia of Alzheimer's type; assay type: in vivo, patients
Protocol: as §3, §4
Case three senile dementia of Alzheimer's type (Overall severity: Marked high degree)
They began to have a forgetfulness from approx. 4 years ago, and became spiritless and became unable to work, and became not to express their feeling, and had wanderling impulsion. The cerebral atrophy was generally noted by the finding of CT scan of head regions at the admission.
Case four senile dementia of Alzheimer's type (Overall severity: Marked high degree)
They had occasionally a forgetfulness from approx. 10 years ago, and became unable to do agricultural work from approx. 4 years ago. The diffuse cerebral atrophy was noted by the finding of CT scan of head regions at the admission.
Case five senile dementia of Alzheimer's type (Overall severity: Moderate degree)
They began to have a forgetfulness from approx. 2 years ago, and became unable to do household affairs from 1 year ago, and became unable to distinguish their familial faces. The cerebral atrophy and enlargement of cerebral ventricle were noted by the finding of CT scan of head regions at the admission. The treatment was changed to the administration of 300 mg/day of the present drug because the efficacy was ineffective with other cerebral metabolic improvement drugs and cerebral-vasodilators.
Case one senile dementia of Alzheimer's type (overall severity: Moderate degree)
They began to have a forgetfulness and spiritlessness after operation of fracture of neck of femur from 10 years ago. The disorientation was strongly noted from 2-3 years ago. The cerebral atrophy and enlargement of cerebral ventricle were noted by the finding of CT scan of head regions at the admission. The efficacy was ineffective with other various drugs than the present drug.

[7] = Transference into brain and stimulation of cerebral metabolism; conditions: in vivo
[8] = test system: Alzheimer's disease; test: Clinical case, overall improvement degree and neuropsychiatric symptoms, Alzheimer's disease; assay type: in vivo, patients
Protocol: as §3, §4
Case two a person, Alzheimer's disease (Overall severity: Moderate degree)
They became occasionally aware of slight change of character from 8 years ago, and they lived without specific changes, but they became spiritless and not to express their feeling from 3 years ago. At the admission, they could not work entirely and was spiritless, and had contact disturbance with other patients, and decrease of memory power and judgement power were noted. […] The atrophy of anterior lobe was remarkably noted at the finding of CT scan of head regions at the admission.

CC(=O)OC(C)C(=O)OCC[N+](C)(C)C.Cc1ccc(S(=O)(=O)[O-])cc1 (stereo not drawn) [ALT, α-acetoxy-α-methylaceticacid trimethylammonioethyl ester toluene-4-sulfonate]
Hygroscopicity [1]: 0.6%
LD50 [2]: 657 mg/kg
Appearance [3]: No change
Decomposition percentage [3]: 0.5%

CC(=O)OC(C)C(=O)OCC[N+](C)(C)C (stereo not drawn) [Aclatonium napadisilate, bis(α-acetoxy-α-methylacetic acid trimethylammonioethyl ester) naphthalene-1,5-disulfonate]
Hygroscopicity [1]: 0.1%
effect on cognitive function ([4]; clinical cases): has not been confirmed at this time
improvement of neuropsychiatric symptoms accompanying dementia ([4]; clinical cases): effective
clinical effect ([4]; human, in vivo): confirmed
effect on severe dementia ([4]; human, in vivo): confirmed
side effect [5]: no side effect
neuropsychiatric symptoms and activity of daily living ([6]; Clinical Case 1, 300 mg/day, 2nd week): they could gait to outside of room at the 2nd week, and their movement behavior was improved, and spontaneousness increased and feeling became clear
overall improvement degree ([6]; Clinical Case 1, Marked high degree, 300 mg/day): improvement
neuropsychiatric symptoms (spontaneousness, conversation) ([6]; Clinical Case 2): spontaneousness increased, and conversation with other patients increased, and they had favorable communication and became fortunate
overall improvement degree ([6]; Clinical Case 2, Marked high degree): slight improvement
decrease of spontaneousness and disturbance of emotion ([6]; Clinical Case 3, 300 mg/day): improved
intellectual function ([6]; Clinical Case 3, 300 mg/day): No changes
activity of daily living and expression ([6]; Clinical Case 3, 300 mg/day, approx. 2nd week after administration): they became able to sit and gait, and eat food by themself and expression became clear
overall improvement degree ([6]; Clinical Case 3, Moderate degree, 300 mg/day): slight improvement
conversation frequency and activity of daily living ([6]; Clinical Case 4, 300 mg/day, from the 2nd week): their conversation frequency with other patients increased and they became able to go out from their room and occasionally go to toilet
overall improvement degree ([6]; Clinical Case 4, Moderate degree, 300 mg/day): slight improvement
cerebral metabolism [7]: stimulated
transference into brain [7]: found
defecation ([8]; Clinical Case 5): defecation became smooth
movement frequency and spontaneousness ([8]; Clinical Case 5, 4th week): increase of movement frequency and improvement of decrease of spontaneousness
overall improvement degree ([8]; Clinical Case 5, Moderate degree): improvement
LD50 [2]: 636 mg/kg
Appearance [3]: No change
Decomposition percentage [3]: 0.2%
